Among the data in patent US20260102505A1, “ANTI-CD45-IGN ANTIBODY DRUG CONJUGATES AND USES THEREOF” (Vor Biopharma Inc., priority 2022, published 2026) are median survival and T cell editing values, retold here.

In assay [1] the test system is recurrent angioimmunoblastic T-cell lymphoma patient-derived xenograft. Kind of assay: PDX model of recurrent angioimmunoblastic T-cell lymphoma, survival. The assay is classed as in vivo, mice. As for the experimental part: Anti-CD45-ADC was further tested in a PDX model of recurrent angioimmunoblastic T-cell lymphoma. A single dose of anti-CD45-ADC (Ab5-DGN549) was administered to a group of mice when tumor levels reached ˜10% in peripheral blood, around day 27. Control groups received either PBS, isotype-ADC, CD45 mAb, ARA-C at 30 mg/kg QDx5, or Dexamethasone at 5 mg/kg Q3Dx10. Long-term disease survival was monitored.

For assay [2], the system named is erythroid-specific BCL11A enhancer-edited CD34+ cells. Kind of assay: Conditioning and engraftment of BCL11A enhancer-edited CD34+ cells in rhesus macaques. The assay is classed as in vivo. Particulars: busulfan 5.5 mg/kg×4 days, 25-34 weeks. As to the method:
Rhesus macaques were treated with a single dose of anti-CD45-ADC (Ab5-DGN549) at either 0.2 or 0.3 mg/kg followed by engraftment of erythroid-specific BCL11A enhancer-edited CD34+ cells.
For transplant studies, rhesus macaque CD34+ HSPCs were electroporated with 3×NLS SpCas9 protein and two RNAs targeting the +55 and +58 BCL11A erythroid enhancers.
A similar experiment was performed in Rhesus macaques. Rhesus macaques were treated with either 0.2 or 0.3 mg/kg of an anti-CD45-ADC as a single IV bolus. At day 10, the macaques underwent an HSC transplant with autologous gene-edited BCL11a enhancer −/− cells, and were monitored over time (FIG. 15A). A cohort of macaques were treated with Busulfan (5.5-6 mg/kg QDx4) as a control.
Two additional rhesus macaques were conditioned with 0.2 mg/kg anti-CD45 ADC and infused with autologous HSPCs transduced with a barcoded lentiviral vector.

The subject of assay [3] is relapsed/refractory acute myeloid leukemia (AML) patient-derived xenograft. Description: PDX model of relapsed/refractory AML, survival. Type of assay: in vivo, mice. Particulars: R/R AML PDX; 30 mg/kg QDx5. As for the experimental part:
Anti-malignancy activity of an anti-CD45-ADC was assessed using a patient-derived xenograft (PDX) model of relapsed/refractory acute myeloid leukemia (AML). A single dose of anti-CD45-ADC (Ab5-DGN549) was administered to a group of mice when tumor levels reached ˜10% in peripheral blood, around day 24. Control groups received either PBS, isotype-ADC, CD45 mAb, or ARA-C at 30 mg/kg QDx5. Long-term, disease-free survival was monitored.
The anti-malignancy activity was assessed in a patient-derived xenograft (PDX) model of relapsed/refractory acute myeloid leukemia (AML).

Regarding `C[C@@H]1C[C@H]2[C@@H]3CCC4=CC(=O)C=C[C@]4(C)[C@@]3(F)[C@@H](O)C[C@]2(C)[C@@]1(O)C(=O)CO` [Dexamethasone], the median survival in assay [1] (5 mg/kg Q3Dx10) worked out at 48 days.
Regarding `CS(=O)(=O)OCCCCOS(C)(=O)=O` [Busulfan, reference compound], the T cell editing in assay [2] is on record as 8-31%.
Take `Nc1ccn([C@@H]2O[C@H](CO)[C@@H](O)[C@@H]2O)c(=O)n1` [ARA-C, reference compound]: the median survival in assay [3] worked out at 64 days; in assay [1] (30 mg/kg QDx5) it was 48 days.
